The text below walks through data of patent US10738002B2, “Halogenated benzotropolones as ATG4B inhibitors” (Universiteit Antwerpen, priority 2016, dated 2020).

Read-outs that look alike come from different tables or passages of the source.

In one series the test system is Jurkat T-cells. Description: CYTO-ID-based phenotypical screening for autophagy inhibition. Type of series: cell-based. To be noted: Homo sapiens, tested at 10 mM concentration + 10 μM everolimus, everolimus-treated = 1 (normalized), control 0.37, read-out: CYTOID assay (autophagy relative to the everolimus-treated group). The protocol:
Final compounds were screened for autophagy/Atg4B inhibition in 3 different assays: a gel-based screening for Atg4B inhibition, a CYTO-ID-based phenotypical screening for autophagy inhibition and a luciferase reporter assay for assessment of intracellular Atg4B inhibition. Initially, all compounds were evaluated using the SDS-PAGE-based screening assay. Each test compound was incubated with [LC3B-GST], a fusion protein of LC3B and glutathione-S-transferase, and Atg4B in Tris-HCl buffer for a fixed time period. Afterwards, residual fusion protein and cleavage products were separated by gel electrophoresis and quantified using optical densitometry. Based on the % of uncleaved substrate, compound activity was expressed as % enzyme inhibition at 500 μM compound concentration. A set of compounds was then subjected to a CYTO ID-based assay (Stankov et al., 2014). This assay is based on selective labelling of autophagic vacuoles in Jurkat T-cells. Quantification of the stained autophagic compartments can then be used for assessment of autophagy modulation. Autophagy induction was obtained by addition of 10 μM everolimus in EtOH in the presence of 10 μM test compound and autophagy inhibition was monitored as a decline in autophagic vacuoles and the corresponding fluorescent signal. […]

The next series concerns the target T1, HsAtg4B (Homo sapiens, UniProt Q9Y4P1).
T1 sequence (Q9Y4P1 1-393): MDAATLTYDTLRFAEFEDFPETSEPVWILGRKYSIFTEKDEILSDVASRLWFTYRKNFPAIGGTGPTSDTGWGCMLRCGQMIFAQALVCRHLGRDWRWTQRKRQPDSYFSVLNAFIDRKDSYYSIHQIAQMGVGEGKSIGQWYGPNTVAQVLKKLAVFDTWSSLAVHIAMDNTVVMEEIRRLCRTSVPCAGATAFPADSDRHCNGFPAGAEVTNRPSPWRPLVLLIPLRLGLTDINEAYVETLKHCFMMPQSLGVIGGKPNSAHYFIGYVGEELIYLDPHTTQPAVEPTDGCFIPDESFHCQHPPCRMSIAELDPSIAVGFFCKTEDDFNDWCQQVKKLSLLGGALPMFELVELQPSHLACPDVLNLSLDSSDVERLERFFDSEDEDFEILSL
Description: SDS-PAGE-based screening assay for Atg4B inhibition (cleavage of LC3B-GST). The series is classed as biochemical. To be noted: 500 μM compound concentration; LC3B-GST substrate, 6 minutes; read-out: SDS-PAGE Enzyme inhibition (%).

Series [1] is described as follows: Plasma stability in mouse plasma. Type of series: in vitro ADME. To be noted: for recovery at 1 h, 50 µM: Non Swiss Albino, 37° C., read-out: Plasma stability (mouse) recovery of parent compound after lh (%); for plasma stability compared to the non-halogenated analogues: comparison in words. The protocol:
A 10 mM compound solution was prepared in DMSO (Acros). A 5 μL aliquot was added to 995 μL of mouse plasma (Non Swiss Albino Mouse Plasma, sodium citrate, DivBioScience, IMS-N) to obtain a final solution of 50 μM. The mixture was gently shaken for 6 hours at 37° C. Aliquots of 100 μL were taken at various time points (0, 30, 60, 120, 180, 360 minutes) and diluted with 400 μL of cold methanol (Sigma-Aldrich) (stored at 4° C.). The suspension was centrifuged at 14000 rpm for 5 minutes. Afterwards, 50 μL of the supernatant was diluted with 950 μL of methanol and analyzed with LC-MS/MS (Waters Acquity H-class UPLC system with ion trap mass spectrometer, Bruker Daltonics Esquire 3000 plus, and Agilent 1100 Series LC system). The samples were analyzed in triplicate. A standard curve was plotted using compound concentrations of 3.12-100 μM in mouse plasma.

Series [2] can be described thus: Metabolic stability in mouse microsomes. Type of series: in vitro ADME. To be noted: for recovery at 30 min, 10 µM: mouse liver microsomes, read-out: Microsomal stability (mouse) recovery of parent compound after 30 min (%); for microsomal stability, comparison in words: mouse microsomes. The protocol: A 5 mM compound solution was prepared in DMSO. A mixture of 713 μL milliQ water (Milli-Q Direct 8, Merck Millipore), 200 μL 0.5 M phosphate buffer (BD Diagnostic Systems, 257385), 50 μL NADPH regenerating system solution A (BD Biosciences), 10 μL NADPH regenerating system solution B (BD Biosciences) and 2 μL compound solution was prepared and heated for 5 min at 37° C. 25 μL of liver microsomes (Corning B.V. Life Sciences) was added to the mixture and 20 μL samples were withdrawn at 0, 15, 30, 60, 120, 240 and 360 minutes. 80 μL (4×20 μL) of cold acetonitrile (Sigma-Aldrich) was added to the samples on ice for 10 minutes. Afterwards, the mixtures were centrifuged at 13000 rpm for 5 minutes at 4° C. A volume of 75 μL of an acetonitrile/water (10/90) mixture was added to 25 μL supernatant and the obtained samples were analyzed by LC-MS/MS in triplicate.

Series [3] has as its system autophagy. To be noted: cited from earlier work.
For series [4], the system named is autophagy. Description: Cellular screening assay for autophagy inhibitors (in our hands). The series is classed as cell-based.

Description for HsAtg4B: For each assay, fresh aliquots of enzyme and substrate were thawn, and fresh buffer was used. All substrate and enzyme dilutions were made in LoBind Eppendorf® tubes. Buffer used in the following methods for making appropriate dilutions consisted of 50 mM Tris-HCl pH 7.4, 150 mM NaCl, 2 mM DTT and 0.1% TWEEN 20, freshly prepared at the day of the experiment. 10 μL of Laemmli Sample Buffer was added to each sample to stop enzymatic cleavage of LC3B-GST and the samples were boiled for 4 minutes. The samples were loaded onto a NuPAGE® Novex 12 Bis-Tris 1.0 mm 15 well gel after termination of the enzymatic reaction. A Thermo-Scientific® PageRuler Prestained Protein Ladder was used as a reference for molecular weights of the separated proteins. […] Lane densities were quantified using Totallab Quant® software.

For `Cn1cnc(N)c2ncnc1-2` [Compound 3-MA, 3-Methyladenine, reference compound], the activity at 10000 µM in the series on Jurkat T-cells stood at 57%.
In the case of `NC(=O)c1cc(O)c(=O)c2c(O)c(O)c(F)cc2c1` [Compound 31, 2-fluoro-3,4,6-trihydroxy-5-oxo-5H-benzo[7]annulene-8-carboxamide], the inhibition (as a rule, the share of the control response that was lost under treatment) at 500 µM at HsAtg4B amounted to 39.9%.
Turning to `O=C(O)c1cc(O)c(=O)c2c(O)c(O)ccc2c1` [Shu et al.], the recovery at 1 h, 50 µM in series [1] is 0%. Also, the recovery at 30 min, 10 µM in series [2] (value obtained using linear interpolation) amounted to 100%. Also, the “autophagy inhibition reported by Shu et al.” value with autophagy [3] was “weak autophagy inhibitor”. In addition, in the series on autophagy [3] (in cellulo), the “in cellulo autophagy inhibition (reported)” value was “no in cellulo autophagy inhibition”. Besides, the “activity in a cellular screening assay for autophagy inhibitors” value in the series on autophagy [4] is given as “did not show activity”.
Turning to `O=C(O)c1cc(O)c(=O)c2c(O)c(O)c(Br)cc2c1` [Compound 36, 2-bromo-3,4,6-trihydroxy-5-oxo-5H-benzo[7]annulene-8-carboxylic acid], in series [1], the recovery at 1 h, 50 µM was 19 ± 1% and the “plasma stability compared to the non-halogenated analogues” value is “substantial increase”. For the same molecule, the recovery at 30 min, 10 µM in series [2] (37° C.) is 100%. Further, the “microsomal stability, comparison in words” value in series [2] is on record as “substantial increase”.
In the case of `CCCCOC(=O)c1cc(O)c(=O)c2c(O)c(O)c(Br)cc2c1` [Compound 40, Butyl 2-bromo-3,4,6-trihydroxy-5-oxo-5H-benzo[7]annulene-8-carboxylate], in series [1], the recovery at 1 h, 50 µM came out at 87 ± 4% and the “plasma stability compared to the non-halogenated analogues” value is reported as “substantial increase”. In addition, in series [2] (37° C.), the recovery at 30 min, 10 µM was found to be 23 ± 7%. For the same molecule, in series [2], the “microsomal stability, comparison in words” value is on record as “substantial increase”.
